Like-named read-outs stand apart in the source and are kept apart here. Values belong to the molecule of their own block, whether it stands above or below them. Non-standard residues stand in square brackets, D forms with d. Residues, ends and D or L forms follow the SMILES beside them. Bta = N[C@@H](Cc1csc2ccccc12)C(=O)O; d(hLeu) = CC(C)CC[C@@H](N)C(=O)O; Cha = N[C@@H](CC1CCCCC1)C(=O)O; Orn = NCCC[C@H](N)C(=O)O; dNMeA = CN[C@H](C)C(=O)O
Tests used:
human PMNs = conditions: myeloperoxidase release, read-out: IC50 antagonistic activity (WO 99/00406); cited from earlier work
C5a receptor = biological target: T1, C5a receptor (Homo sapiens, UniProt P21730); conditions: read-out: IC50 as a measure for affinity (WO 03/033528); cited from earlier work
T1 sequence (P21730 1-350): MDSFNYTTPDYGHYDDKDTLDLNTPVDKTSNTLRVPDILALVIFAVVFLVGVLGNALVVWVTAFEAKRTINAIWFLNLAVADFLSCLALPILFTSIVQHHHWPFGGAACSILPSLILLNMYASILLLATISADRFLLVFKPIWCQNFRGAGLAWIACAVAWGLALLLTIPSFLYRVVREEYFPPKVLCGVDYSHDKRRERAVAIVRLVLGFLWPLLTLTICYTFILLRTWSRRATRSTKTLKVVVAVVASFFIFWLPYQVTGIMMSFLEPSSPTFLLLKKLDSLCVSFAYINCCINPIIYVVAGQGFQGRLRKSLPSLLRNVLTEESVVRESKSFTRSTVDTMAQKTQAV

C5aR [1] = biological target: T2, C5aR (Homo sapiens, UniProt P21730); conditions: PMN membranes, cited from earlier work
T2 construct: derived from measurements with isolated membranes from polymorphonuclear neutrophilic granulocytes (PMN membranes); host or cells: isolated membranes of polymorphonuclear neutrophilic granulocytes (PMN membranes)
T2 sequence (P21730 1-350): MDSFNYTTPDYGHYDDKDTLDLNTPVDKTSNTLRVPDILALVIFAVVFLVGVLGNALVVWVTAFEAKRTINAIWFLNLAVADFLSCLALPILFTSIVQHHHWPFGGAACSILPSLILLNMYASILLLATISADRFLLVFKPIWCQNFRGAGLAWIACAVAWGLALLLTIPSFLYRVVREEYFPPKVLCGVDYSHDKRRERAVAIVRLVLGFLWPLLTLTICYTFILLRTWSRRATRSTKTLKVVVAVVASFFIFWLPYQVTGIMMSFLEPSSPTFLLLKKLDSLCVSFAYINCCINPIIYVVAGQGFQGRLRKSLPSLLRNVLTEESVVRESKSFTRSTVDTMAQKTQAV

C5aR [2] = biological target: T2, C5aR; assay: Prior-art antagonistic activity (WO 03/033528); conditions: WO 03/033528 values
Excerpt: In WO 03/033528 single substitutions of various amino acids in the molecule Ac-Phe[Orn-Pro-cha-Trp-Arg](compound 1) [SEQ ID NO: 6] are reported. A decrease of the affinity to the C5aR and a decrease in antagonistic potency is described for the substitution of the Arg with homoarginine (compound 44), citrulline (compound 45), lysine ([…]), or canavanine (compound 47). […] No IC50 value is reported for canavanine. […] Apart from the effects of charged arginine substitutions (homoarginine and lysine), in particular the strong decrease in binding strength upon exchange of the charged arginine (0.45 μM) by the uncharged citrulline (6 μM) is remarkable. The antagonistic activity is reduced even more (Arg: 0.028 μM, Cit: 0.690 μM). […] This also reflects that the size of the side chain itself is not sufficient as a criterium for predicting the activity. WO 03/033528 sets forth that the arginine (1) substitution to citrulline (45) results in a compound with allegedly remarkable antagonistic properties (p. 44, line 28ff). However, the cut off rate for what is remarkable, is chosen arbitrarily and the significant 24-fold drop in activity underlines the in the prior art well known importance of the C-terminal arginine in the peptidic C5aR antagonists. […]

human C5aR (CD88) [3] = biological target: T3, human C5aR (CD88) (Homo sapiens, UniProt P21730); assay: Determination of the IC50 value in an enzyme release assay (functional assay, antagonistic activity); type: cell-based
T3 construct: expressed in transfected cells; host or cells: rat basophilic leukemia cells (RBL)
T3 sequence (P21730 1-350): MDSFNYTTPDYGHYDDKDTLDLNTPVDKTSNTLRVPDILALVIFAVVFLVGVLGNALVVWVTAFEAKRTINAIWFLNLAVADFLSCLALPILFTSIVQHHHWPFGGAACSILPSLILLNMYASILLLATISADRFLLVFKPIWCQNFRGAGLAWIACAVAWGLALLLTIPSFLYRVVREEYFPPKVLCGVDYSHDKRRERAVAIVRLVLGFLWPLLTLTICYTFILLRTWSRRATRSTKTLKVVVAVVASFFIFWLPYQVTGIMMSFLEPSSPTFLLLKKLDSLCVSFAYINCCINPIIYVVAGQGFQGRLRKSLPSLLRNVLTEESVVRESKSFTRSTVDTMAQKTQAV

human C5aR (CD88) [4] = biological target: T3, human C5aR (CD88); assay: Determination of EC50 values in an enzyme release assay (agonistic activity, no C5a added); type: cell-based; conditions: cellular assay, up to a concentration of at least 1430 nM
Protocol: The determination of the EC50 value was performed in a way similar to the procedure described in example 11, with the only exception that 30 μl of the compound to be tested were mixed with 75 μl of the cell suspension described in example 11. There was no preincubation or addition of C5a for stimulation of the enzyme release.

BALB/c mice = assay: Model of immune complex mediated peritonitis (reverse passive Arthus reaction); type: in vivo; conditions: 1 mg/kg i.v. 15 min before Arthus reaction, lavage after 6 h, FIG. 1
Protocol: Immune complex mediated peritonitis is part of the pathological conditions of immune complex related diseases such as vasculitis, nephritis, arthritis, and farmer's disease. The corresponding animal model was described by Heller et al. (1999 Journal of Immunology 163: 985-994) and takes advantage of the pro-inflammatory effect of immune complexes formation from i.v. administration of the antigen and i.p. administration of the antibody.
BALB/c mice (6-8 weeks old) were treated i.v. with the compound 149 (1 mg/kg body weight in 200 μl vehicle) which is one in accordance with the present invention, 15 min before the initiation of the reverse passive Arthus reaction. Arthus reaction was induced by the administration of OVA (20 mg/kg i.v. in 200 μl PBS) and polyclonal anti-OVA Ab (rabbit; 800 μg/Maus i.p). After 6 h a peritoenal lavage with 2 ml PBS 0.1% BSA was done. The collected PE-cells were stained with DIFF-Quick. At least 20 visual fields (100× magnification) were analysed for the presence of neutrophils.

Female Wistar rats = assay: Model of C5a induced neutropenia; type: in vivo; conditions: i.v. infusion 10 min before 2 μg/kg hrC5a i.v., FIG. 2
Excerpt: C5a induced neutropenia is a model for shock induced diseases (e.g. septic shock), where the systemic role of C5a such as neutropenia, blood pressure decrease, plays an important role. The reason for the decrease of the neutrophils in the circulation is their C5a triggered binding to the vessel walls. This process of neutrophil recruitment is also playing an important role in many other diseases like reperfusion injury. This model was also described by Short et al. (1999 British Journal of Pharmacology 125: 551-554).
Female Wistar rats were anaesthetized i.p. with ketamine (80 mg/kg) and xylazine (12 mg/kg). A catheter was introduced into the jugular veine and the animals were subjected to the following procedure: • 1. Rats were pre-treated with vehicle or compound 149 which is a compound according to the invention, via i.v. infusion. A blood sample was taken one minute prior to that. • 2. 10 min after compound infusion the rats were treated with 2 μg/kg hrC5a i.v. (2 μg/kg over 1 min)
Blood samples are taken shortly before and at various times after hrC5a administration. • 3. […]
White blood cell count was measured with a haematology-cell-counter. […]
The differential cell count is determined as the sum of neutrophils, eosinophils, basophils, lymphocytes and monocytes of 100 cells. Then the percentage of the neutrophils in relation to all white blood cells is calculated.

human C5aR (CD88) [5] = biological target: T4, human C5aR (CD88) (human, UniProt P21730 1-350); assay: cell-based or functional assay
T4 sequence (looked up): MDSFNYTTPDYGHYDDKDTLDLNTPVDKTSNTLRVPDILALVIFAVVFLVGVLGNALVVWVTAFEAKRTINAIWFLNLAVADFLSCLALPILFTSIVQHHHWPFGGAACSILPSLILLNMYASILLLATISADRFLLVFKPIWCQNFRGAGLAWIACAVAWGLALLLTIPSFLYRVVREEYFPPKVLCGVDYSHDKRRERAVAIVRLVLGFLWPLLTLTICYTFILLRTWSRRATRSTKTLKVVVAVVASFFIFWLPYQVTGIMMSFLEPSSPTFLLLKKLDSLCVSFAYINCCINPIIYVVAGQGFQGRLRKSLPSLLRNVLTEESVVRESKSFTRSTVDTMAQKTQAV

human C5aR (CD88) [6] = biological target: T4, human C5aR (CD88); assay: cell-based or functional assay; remark: listed apart in the source

Molecule: Me-Phe-Lys-Pro-cha-Trp-arg (FKPXWX; N-methyl, D-cha, D-Arg; oligopeptide with antagonistic activity at the C5a receptor)
IC50 (human PMNs): 85 nM

Molecule: Ac-Phe[Orn-Pro-cha-Trp-Arg] with the Arg substituted with homoarginine (WO 03/033528) [WO 03/033528 compound 44]
IC50 (C5a receptor): 1360 nM

Molecule: Ac-Phe-Lys-Ala-Cha-Ala-Leu-N-Methyl(D)ala-Arg-OH (Ac-FKA[Cha]AL[dNMeA]R-OH; SMILES CC(=O)N[C@@H](Cc1ccccc1)C(=O)N[C@@H](CCCCN)C(=O)N[C@@H](C)C(=O)N[C@@H](CC1CCCCC1)C(=O)N[C@@H](C)C(=O)N[C@@H](CC(C)C)C(=O)N(C)[C@H](C)C(=O)N[C@@H](CCCNC(=N)N)C(=O)O)
IC50 (C5aR [1]; read-out: IC50 for the binding (WO 90/09162)): 12 nM

drop in activity on substitution of arginine by citrulline (C5aR [2]): 24 fold
Molecule: CC(=O)N[C@@H](Cc1ccccc1)C(=O)N[C@H]1CCCNC(=O)[C@H](CCCNC(N)=O)NC(=O)[C@H](Cc2c[nH]c3ccccc23)NC(=O)[C@@H](CC2CCCCC2)NC(=O)[C@@H]2CCCN2C1=O [Compound 10, Ac-Phe-[Orn-Pro-cha-Trp-Cit]]

Molecule: CC(=O)N[C@@H](Cc1ccccc1)C(=O)N[C@@H](CCCN)C(=O)N1CCC[C@H]1C(=O)N[C@H](CCC(C)C)C(=O)N[C@@H](Cc1csc2ccccc12)C(=O)N[C@@H](Cc1ccccc1)C(N)=O [Compound 149, Ac-Phe-Orn-Pro-hle-Bta-Phe-NH2] (Ac-F[Orn]P[d(hLeu)][Bta]F-NH2)
inhibitory activity (in words) (human C5aR (CD88) [3]): noteworthy inhibitory activity | agonistic activity (in words) (human C5aR (CD88) [4]): pure antagonists | influx of pro-inflammatory cells (neutrophils) into the peritoneum (BALB/c mice): reduction of the influx of pro-inflammatory cells into the peritoneum | C5a-induced neutropenia (Female Wistar rats): reduces significantly C5a-induced neutropenia

Molecule: (N-Methyl)Phe-Lys-Pro-cha-ψ{CH2- N(CH2CH2C6H5)}-Arg-OH
IC50 (C5aR [1]; read-out: IC50 binding to C5aR (WO 92/12168)): 360 nM

Molecule: Ac-Phe[Orn-Pro-cha-Trp-Arg] with the Arg substituted with lysine (WO 03/033528); number 47 also printed for canavanine [WO 03/033528 compound 47]
IC50 (C5a receptor): 24000 nM

IC50 activity group, enzyme release assay (Example 30) (human C5aR (CD88) [5]): ≤ 2000 nM | IC50 activity group, enzyme release assay (human C5aR (CD88) [6]): ≤ 2000 nM
B1: Ac-Phe-[Orn-Pro-cha-Trp-Cit] (peptide)
peptide: FXPXWX
modifications: not fully specified; Ac-; Orn2; cha4 (D); Cit6; cyclic [2-6]

— patent US7727960B2, “C5a receptor antagonists” (Jerini AG, priority 2003, dated 2010)
